Results published in patent US20240139220A1, “TREATMENT OF HPV INFECTION” (priority 2022, published 2024).
Like-named read-outs stand apart in the source and are kept apart here.

Columns and labels:
C33A cells = assay: In vitro cytotoxicity, XTT, five days; settings: read-out: C33A CC50
Protocol: (§1) Three compounds (Compound I, Compound II and Compound III) were solubilized at 40 mM in DMSO and stored at −20° C. The test compounds were evaluated using a high test concentration of 50 μM. Serial half-logarithmic dilutions were performed for the in vitro cytotoxicity assays.
(§2) Cells listed in Table 70 were enumerated by Trypan Blue Dye exclusion method and seeded in the interior wells of a 96 well flat bottom microtiter plate at 100 μL/well. Proliferating cells were incubated overnight at 37° C./5% CO2 to allow the cells to adhere to the plates at approximately 70% confluency. Tissue culture medium was removed and replaced with 100 μL/well of fresh medium. One-hundred microliters (100 μL) of each compound at six concentrations was transferred to the 96-well plate containing the cells in triplicate. Table 70 lists the cell line, type of cell, source of cell stock, base tissue culture medium supplemented with 10% fetal bovine serum, 2 mM L-glutamine, 100 U/mL penicillin and 100 μg/mL streptomycin, and microtiter plate seeding density.
(§3) Following incubation at 37′C in a 5% CO2 incubator for five days, the test plates were stained with the tetrazolium dye XTT (2,3-bis(2-methoxy-4-nitro-5-sulfopheny1)-5-[(phenylamino)carbonyl]-2H-tetrazolium hydroxide). XTT-tetrazolium was metabolized by the mitochondrial enzymes of metabolically active cells to a soluble formazan product. XTT solution was prepared daily as a stock of 1 mg/ml in RPM11640. Phenazine methosulfate (PMS) solution was prepared at 0.15 mg/ml in PBS and stored in the dark at −20° C. XTT/PMS stock was prepared immediately before use by adding 40 μL of PMS per ml of XTT solution. Fifty microliters of XTT/PMS were added to each well of the plate and the plate was reincubated for 4 hours at 37° C. Plates were sealed with adhesive plate sealers and shaken gently or inverted several times to mix the soluble formazan product and the plate was read spectrophotometrically at 450/650 nm with a Molecular Devices Vmax plate reader.
(§4) Microsoft Excel 2010 was used to analyze and graph the raw data. CCso (50% reduction in cell viability) values are tabulated and provided. Raw data for cytotoxicity with a graphic representation of the data are provided in a printout summarizing the compound effect on cell viability.
(§5) Compounds I, II, and III were evaluated for cytotoxicity to proliferating Hs27, HeLa, C33A and HEK293 cells by measuring cell viability using XTI tetrazolium dye following five days in culture (Table 71).

Hs27 cells = assay: In vitro cytotoxicity, XTT, five days
Protocol: as §1, §2, §3, §4, §5

HeLa cells = assay: In vitro cytotoxicity, XTT, five days
Protocol: as §1, §2, §3, §4, §5

[1] = Behavior under compression, grinding simulation and granulation simulation (XRPD); format: physicochemical
Protocol: About 10 mg of Compound I monofumarate Pattern 1 (Example 7) was compressed for 5 minutes at 10 MPa with a hydraulic press. XRPD characterization was performed to investigate the polymorphic behavior under compression.
About 10 mg of Compound I monofumarate Pattern 1 (Example 7) was ground manually with a mortar and pestle for 5 min. Form transformation and degree of crystallinity was evaluated by XRPD.
Water or ethanol was added drop wise to about 10 mg of Compound I monofumarate Pattern 1 (Example 7) until solids were wetted sufficiently. The samples were ground manually with a mortar and pestle for 3 minutes. Samples are dried under ambient condition for 10 min. Form transformation and degree of crystallinity were evaluated by XRPD.

[2] = Bulk stability, accelerated storage for one week (HPLC, XRPD); format: physicochemical
Protocol: Bulk stability: Accelerated stability experiments were conducted at 25° C./92% RH and 40° C./75% RH in an open container, 60° C. in a tight container for one week.
Samples were characterized by XRPD and HPLC and inspected for color change.
Accelerated stability experiments were conducted at 25° C./92% RH in an open container, at 40° C./75% RH in an open container, and at 60° C. in a tight container for one week.

[3] = Hygroscicity by Dynamic Vapor Sorption (DVS) at 25° C.; format: physicochemical
Protocol: Hygroscopicity was investigated by DVS at 25° C., using the following method: […]

[4] = Approximate solubility in solvents at 25° C. and 50° C. by visual observation; format: physicochemical
Protocol: The maximum volume of each solvent added was 1 mL. Approximate solubility was determined by visual observation.
Maximum volume of each solvent added was 1 mL. Approximate solubility was determined by visual observation.

[5] = Solubility in buffers, water and simulated vaginal fluid at 37° C.; format: physicochemical
Protocol: About 4 mg of Compound I Pattern 1 was added into 2 mL of buffer solution.
(§6) Solubility was tested in five media, pH 3.0 citrate buffer, pH 4.5 acetate buffer, pH 6.8 phosphate buffer, water, simulated vaginal fluid (pH 4.2) at 37° C. for 0.5 h and 2 h.
The salt amount used is equivalent to 10 mg anhydrous free base. […] The obtained clear solutions were analyzed by pH meter for pH, and solubility was determined by observation.
as §6

HEK293 cells = tested on: HEK293 cells
Protocol: as §1
Cells listed in Table 70 were enumerated by Trypan Blue Dye exclusion method and seeded in the interior wells of a 96 well flat bottom microtiter plate at 100 μL/well. Proliferating cells were incubated overnight at 37° C./5% CO2 to allow the cells to adhere to the plates at approximately 70% confluency. Tissue culture medium was removed and replaced with 100 μL/well of fresh medium. […]
Following incubation at 37′C in a 5% CO2 incubator for five days, the test plates were stained with the tetrazolium dye XTT (2,3-bis(2-methoxy-4-nitro-5-sulfopheny1)-5-[(phenylamino)carbonyl]-2H-tetrazolium hydroxide). […] Plates were sealed with adhesive plate sealers and shaken gently or inverted several times to mix the soluble formazan product and the plate was read spectrophotometrically at 450/650 nm with a Molecular Devices Vmax plate reader. […]
as §5

[6] = 25° C., 92% RH, open container, one week
[7] = 40° C., 75% RH, open container, one week
[8] = 60° C., tight container, one week
[9] = Simulated vaginal fluid (pH adjusted with 0.2N NaOH)

## CCOC(=O)C(C)NP(=O)(COCCn1cnc2c(OC)nc(N)nc21)OCc1ccccc1 (mixture of isomers) [ABl2280]
C33A cells
  CC50: 0.28 µM
Hs27 cells; read-out: Hs27 CC50, Hs27 cells, XTT, five days
  CC50: 22.9 µM
HeLa cells; read-out: HeLa CC50, HeLa cells, XTT, five days
  CC50: 18.6 µM

## CCOC(=O)C(C)NP(=O)(COCCn1cnc2c(OC)nc(N)nc21)OCc1ccccc1.O=C(O)C=CC(=O)O (mixture of isomers) [Compound I Monofumarate Pattern 1]
[1]; compressed for 5 minutes at 10 MPa
  Polymorphic behavior under compression (XRPD): no form change was observed
[1]; ground manually with mortar and pestle for 5 min
  Form transformation and crystallinity after grinding (XRPD): no form change was observed; crystallinity slightly decreased
[1]; wetted with water or ethanol, ground 3 minutes, dried 10 min
  Form transformation after granulation simulation (XRPD): neither in ethanol, nor in water form change was observed
[2]; 25° C., 84% RH, open container, 2 days
  XRPD: No change
[2]; [6]
  HPLC (chemical purity): 98.2%
  XRPD: No change
[2]; [7]
  HPLC (chemical purity): 95.6%
  XRPD: No change
[2]; [8]
  HPLC (chemical purity): 95.5%
  XRPD: No change
[2]; Initial
  HPLC (chemical purity): 98.6%
[3]; 0% RH, 25° C.
  D. (%) Cycle 1 (Desorption): 0.49%
  D. (%) Cycle 2 (Desorption): 0.09%
  S. (%) Cycle 1 (Sorption): 0.49%
  S. (%) Cycle 2 (Sorption): 0.09%
[3]; 10% RH, 25° C.
  D. (%) Cycle 1 (Desorption): 0.62%
  D. (%) Cycle 2 (Desorption): 0.15%
  S. (%) Cycle 1 (Sorption): 0.56%
  S. (%) Cycle 2 (Sorption): 0.18%
[3]; 20% RH, 25° C.
  D. (%) Cycle 1 (Desorption): 0.71%
  D. (%) Cycle 2 (Desorption): 0.35%
  S. (%) Cycle 1 (Sorption): 0.66%
  S. (%) Cycle 2 (Sorption): 0.27%
[3]; 30% RH, 25° C.
  D. (%) Cycle 1 (Desorption): 0.81%
  D. (%) Cycle 2 (Desorption): 0.47%
  S. (%) Cycle 1 (Sorption): 0.76%
  S. (%) Cycle 2 (Sorption): 0.37%
[3]; 40% RH, 25° C.
  D. (%) Cycle 1 (Desorption): 0.93%
  D. (%) Cycle 2 (Desorption): 0.56%
  S. (%) Cycle 1 (Sorption): 0.86%
  S. (%) Cycle 2 (Sorption): 0.47%
[3]; 50% RH, 25° C.
  D. (%) Cycle 2 (Desorption): 0.67%
  S. (%) Cycle 1 (Sorption): 0.71%
[3]; 60% RH, 25° C.
  D. (%) Cycle 2 (Desorption): 0.85%
  S. (%) Cycle 1 (Sorption): 0.85%
[3]; 70% RH, 25° C.
  D. (%) Cycle 2 (Desorption): 1.04%
  S. (%) Cycle 1 (Sorption): 1.02%
[3]; 80% RH, 25° C.
  D. (%) Cycle 2 (Desorption): 1.30%
  S. (%) Cycle 1 (Sorption): 1.27%
[3]; 90% RH, 25° C.
  D. (%) Cycle 2 (Desorption): 1.84%
  S. (%) Cycle 1 (Sorption): 1.78%
[3]; 95% RH, 25° C.
  D. (%) Cycle 2 (Desorption): 2.89%
  S. (%) Cycle 1 (Sorption): 2.89%
[3]; cycle 40-0-95-0-40% RH, 25° C.
  XRPD after DVS test: No form change,
[3]; up to 95% RH, DVS 25° C.
  Water uptake: about 2.9%
[4]; Acetone, 25° C.
  Solubility: 50000 to 100000 µg/mL
[4]; Acetone, 50° C.
  Solubility: 125000 to 167000 µg/mL
[4]; Acetonitrile (ACN), 25° C.
  Solubility: 20000 to 25000 µg/mL
[4]; Acetonitrile (ACN), 50° C.
  Solubility: 20000 to 33000 µg/mL
[4]; Dichloromethane (DCM), 25° C.
  Solubility: <2000 µg/mL
[4]; Dichloromethane (DCM), 50° C.
  Solubility: <10000 µg/mL
[4]; Ethanol (EtOH), 25° C.
  Solubility: >100000 µg/mL
[4]; Ethanol (EtOH), 50° C.
  Solubility: 250000 to 500000 µg/mL
[4]; Ethyl acetate (EA), 25° C.
  Solubility: <2000 µg/mL
[4]; Ethyl acetate (EA), 50° C.
  Solubility: <10000 µg/mL
[4]; Heptanes, 25° C.
  Solubility: <2000 µg/mL
[4]; Heptanes, 50° C.
  Solubility: <10000 µg/mL
[4]; Isopropanol (IPA), 25° C.
  Solubility: 50000 to 100000 µg/mL
[4]; Isopropanol (IPA), 50° C.
  Solubility: 71000 to 84000 µg/mL
[4]; Isopropyl acetate (IPAc), 25° C.
  Solubility: <2000 µg/mL
[4]; Isopropyl acetate (IPAc), 50° C.
  Solubility: <10000 µg/mL
[4]; Methanol (MeOH), 25° C.
  Solubility: >100000 µg/mL
[4]; Methanol (MeOH), 50° C.
  Solubility: >500000 µg/mL
[4]; Methyl ethyl ketone (MEK), 25° C.
  Solubility: 20000 to 25000 µg/mL
[4]; Methyl ethyl ketone (MEK), 50° C.
  Solubility: 22000 to 25000 µg/mL
[4]; Methyl t-butyl ether (MTBE), 25° C.
  Solubility: <2000 µg/mL
[4]; Methyl t-butyl ether (MTBE), 50° C.
  Solubility: <10000 µg/mL
[4]; Tetrahydrofuran (THF), 25° C.
  Solubility: >100000 µg/mL
[4]; Tetrahydrofuran (THF), 50° C.
  Solubility: 250000 to 500000 µg/mL
[4]; Toluene, 25° C.
  Solubility: <2000 µg/mL
[4]; Toluene, 50° C.
  Solubility: <10000 µg/mL
[4]; Water, 25° C.
  Solubility: 14000 to 17000 µg/mL
[4]; Water, 50° C.
  Solubility: 22000 to 25000 µg/mL
[5]; [9]
  Solubility 0.5 hrs: >2000 µg/mL
  Solubility 2 hrs: >2000 µg/mL
  pH at 2 hrs: (5.39)
[5]; Water
  Solubility 0.5 hrs: >2000 µg/mL
  Solubility 2 hrs: >2000 µg/mL
  pH at 2 hrs: (3.11)
[5]; pH 3.0 100 mM citrate buffer
  Solubility 0.5 hrs: >2000 µg/mL
  Solubility 2 hrs: >2000 µg/mL
  pH at 2 hrs: (3.05)
[5]; pH 4.5 50 mM acetate buffer
  Solubility 0.5 hrs: >2000 µg/mL
  Solubility 2 hrs: >2000 µg/mL
  pH at 2 hrs: (4.36)
[5]; pH 6.8 50 mM phosphate buffer
  Solubility 0.5 hrs: >2000 µg/mL
  Solubility 2 hrs: >2000 µg/mL
  pH at 2 hrs: (6.49)

## CCOC(=O)C(C)NP(=O)(COCCn1cnc2c(OC)nc(N)nc21)OCc1ccccc1 (single isomer, unassigned; isomer 1) [ABl2280 Isomer 1]
C33A cells
  CC50: 0.2 µM
Hs27 cells
  CC50: 23.2 µM
HeLa cells
  CC50: 15.1 µM
HEK293 cells
  CC50: < 0.16 µM

## CCOC(=O)C(C)NP(=O)(COCCn1cnc2c(OC)nc(N)nc21)OCc1ccccc1 (single isomer, unassigned; isomer 2) [ABl2280 Isomer 2]
C33A cells
  CC50: < 0.16 µM
Hs27 cells
  CC50: 7.62 µM
HeLa cells
  CC50: 16.9 µM
HEK293 cells
  CC50: < 0.16 µM
